Source: US6060485A, “Arylacetic amide derivative or salt thereof, and pharmaceutical comprising it” (SSP Co., Ltd., priority 1997, dated 2000)
Counter-ions that a name gives are not always drawn. Like-named read-outs stand apart in the source and are kept apart here.

Key:
[1] = test system: acetylcholine-induced bladder contraction; test: Action against acetylcholine-induced bladder contraction (intraduodenal); assay type: in vivo, SD male rats; conditions: Rattus norvegicus, 2 h, read-out: Bladder contraction inhibitory action ID50
Method: Action against acetylcholine-induced bladder contraction Testing method
SD male rats weighing 230 to 390 g were each fixed on its back under intraperitoneal anesthesia with 500 mg/kg of urethane and 50 mg/kg of α-chloralose. Then, its bladder was exposed by midline abdominal incision. Into the top part of the bladder, a polyethylene tube filled with physiological saline was inserted and intracystic pressure was measured. Into the femoral vein, a venous cannula for administration of a drug was inserted, through which 10 μg/kg of acetylcholine were administered to induce bladder contraction. Then, acetylcholine was administered at intervals of 10 minutes. After the bladder contraction by acetylcholine became stable, the stomach was subjected to midline incision and the test compound was intraduodenally administered using an injection needle.
The bladder contraction was measured as a difference of intracystic pressure before and after the administration of acetylcholine.

[2] = test system: carbachol-induced hypersialosis; test: Action against carbachol-induced hypersialosis (salivation, oral); assay type: in vivo, SD male rats; conditions: for ED50: Rattus norvegicus, read-out: Salivation inhibitory action ID50; for Selectivity: bladder over salivation, propiverine hydrochloride = 1.0; for Salivation inhibitory action / Bladder contraction inhibitory action: ratio of ID50 values
Method: Action against carbachol-induced hypersialosis Testing method
A test compound was orally administered to each of SD male rats weighing 100 to 150 g. Thirty minutes later, 0.1 mg/kg of carbachol was intraperitoneally administered. Immediately after the administration of carbachol, the rat was fixed by hands under non-anesthesia and under this condition, the saliva was wiped off with a cotton ball for 10 minutes. The weight of the saliva so obtained was measured.

[3] = SD male rats, intraduodenal, acetylcholine 10 μg/kg i.v., intracystic pressure, observed 120 minutes
[4] = SD male rats, oral, 30 minutes before carbachol 0.1 mg/kg i.p., saliva weight over 10 minutes

SMILES	ED50 [1, 3] [mg/kg]	ED50 [2, 4] [mg/kg]	Selectivity [2]	Salivation inhibitory action / Bladder contraction inhibitory action [2]	ED50 [1] [mg/kg]	ED50 ([2]; po) [mg/kg]
CCCCOC(C(=O)NC1CCN(Cc2ccccc2)CC1)(c1ccccc1)C(C)C (centres unmarked) [Compound No. 4, N-(1-benzyl-4-piperidinyl)-2-butoxy-3-methyl-2-phenylbutanamide]	9.8	56.6	6.2	5.8	–	–
CCN(CC)CC#CCOC(=O)C(O)(c1ccccc1)C1CCCCC1 (centres unmarked) [Oxybutynin hydrochloride, reference compound]	–	–	1.1	1.0	3.4	3.5
CCCOC(C(=O)OC1CCN(C)CC1)(c1ccccc1)c1ccccc1 [Propiverine hydrochloride, reference compound]	9.9	9.2	1.0	0.9	–	–
CCCOC(C(=O)NC1CCN(Cc2ccccc2)CC1)(c1ccccc1)C(C)C (centres unmarked) [compound 3]	9.4	33.9	4.0	3.6	–	–
CCCOC(C(=O)NC1CCN(Cc2ccccc2)CC1)(c1ccccc1)C1CC1 (centres unmarked) [compound 12]	10	22.5	2.4	2.3	–	–
